Reference: US9499550B2 (BRISTOL-MYERS SQUIBB COMPANY, priority 2012, dated 2016)
Read-outs that look alike come from different tables or passages of the source.

Tests used:
[1] = system: HCV genotype 1a (H77 strain) replicon in HUH-7 cells; test: HCV replicon luciferase reporter assay, genotype 1a; assay type: cell-based; details: Hepatitis C virus, Huh-7, 72 h, 3 days incubation
Summary of the method: (§1)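 Replicon inhibition for both genotypes was measured as Renilla luciferase signal (EnduRen, 7.5 μM final, 2 h) after 3-day, 37° C exposure of replicon-bearing HUH-7 cells in 4% FCS DMEM, 0.5% DMSO. The 1b construct carries S1179I; the 1a H77 construct carries P1496L and S2204I. Twenty-point, 3-fold dilutions were fitted four-parametrically for EC50, and CC50 was taken from multiplexed Cell Titer-Blue.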

[2] = system: HCV genotype 1b (Con1) replicon in HUH-7 cells; test: HCV replicon luciferase reporter assay, genotype 1b; assay type: cell-based; details: Hepatitis C virus, Huh-7, 72 h, 3 days incubation
Summary of the method: as §1

[3] = HCV genotype 1a replicon luciferase assay, range class, read-out: LE_1a (EC50, range)
[4] = HCV genotype 1b replicon luciferase assay, range class, read-out: LE_1b (EC50, range)
[5] = HCV genotype 1a replicon luciferase, read-out: LE_1a (EC50, range)
[6] = HCV genotype 1b replicon luciferase, read-out: LE_1b (EC50, range)

| Structure (SMILES) | EC50 [1, 3] | EC50 [2, 4] | EC50 [1, 5] | EC50 [2, 6] | other results |
| --- | --- | --- | --- | --- | --- |
| CC(C)n1nc(O[C@@H]2C[C@H]3C(=O)N[C@]4(C(=O)NS(=O)(=O)C5(C)CC5)C[C@H]4/C=C\CC[C@H](C)C[C@@H](C)[C@H](NC(=O)OC(C)(C)C)C(=O)N3C2)c2ccccc2c1=O [Compound 1003, tert-butyl ((2R,6S,7R,9S,13aS,14aR,16aS,Z)-2-((3-isopropyl-4-oxo-3,4-dihydrophthalazin-1-yl)oxy)-7,9-dimethyl-14a-(((1-methylcyclopropyl)sulfonyl)carbamoyl)-5,16-dioxo-1,2,3,5,6,7,8,9,10,11,13a,14,14a,15,16,16a-hexadecahydrocyclopropa[e]pyrrolo[1,2-a][1,4]diazacyclopentadecin-6-yl)carbamate] | > 87.4 nM | > 87.4 nM | – | – | – |
| CC[C@@H]1C[C@H](C)CC/C=C\[C@@H]2C[C@@]2(C(=O)NS(=O)(=O)C2(C)CC2)NC(=O)[C@@H]2C[C@@H](Oc3nc4c(c5cc(OC)ccc35)CCCO4)CN2C(=O)[C@H]1NC(=O)OC(C)(C)C(F)F [Compound 6092, 1,1-difluoro-2-methylpropan-2-yl((2R,6S,7R,9R,13aS,14aR,16aS,Z)-7-ethyl-2-((9-methoxy-2,3-dihydro-1H-pyrano[2,3-c]isoquinolin-6-yl)oxy)-9-methyl-14a-(((1-methylcyclopropyl)sulfonyl)carbamoyl)-5,16-dioxo-1,2,3,5,6,7,8,9,10,11,13a,14,14a,15,16,16a-hexadecahydrocyclopropa[e]pyrrolo[1,2-a][1,4]diazacyclopentadecin-6-yl)carbamate] | – | – | 1.01 to 5 nM | 1.01 to 5 nM | – |
| [2H]C([2H])([2H])C(OC(=O)N[C@@H]1C(=O)N2C[C@H](Oc3nnc(OC)c4ccccc34)C[C@H]2C(=O)N[C@]2(C(=O)NS(=O)(=O)C3(C)CC3)C[C@H]2/C=C\CC[C@H](C)C[C@H]1CC)(C([2H])([2H])[2H])C(F)(F)F [Compound 5019] | – | – | 4.82 to 103 nM | < 5.46 nM | EC50 ([1]; HCV genotype 1a replicon luciferase, read-out: LE_1a (EC50)): 7.27 nM; EC50 ([2]; HCV genotype 1b replicon luciferase, read-out: LE_1b (EC50)): 3.65 nM |
| CCOc1cnc(O[C@@H]2C[C@H]3C(=O)N[C@]4(C(=O)NS(=O)(=O)C5CC5)C[C@H]4/C=C\CC[C@@H](C)C[C@@H](C)[C@H](NC(=O)OC(C)(C)C(F)(F)F)C(=O)N3C2)c2ccccc12 [Compound 18, 1,1,1-trifluoro-2-methylpropan-2-yl((2R,6S,7R,9R,13aS,14aR,16aS,Z)-14a-((cyclopropylsulfonyl)carbamoyl)-2-((4-ethoxyisoquinolin-1-yl)oxy)-7,9-dimethyl-5,16-dioxo-1,2,3,5,6,7,8,9,10,11,13a,14,14a,15,16,16a-hexadecahydrocyclopropa[e]pyrrolo[1,2-a][1,4]diazacyclopentadecin-6-yl)carbamate] | < 5.46 nM | < 5.46 nM | – | – | – |
| COc1ccc2c(O[C@@H]3C[C@H]4C(=O)N[C@]5(C(=O)NS(=O)(=O)C6(CF)CC6)C[C@H]5/C=C\CC[C@@H](C)C[C@@H](C)[C@H](NC(=O)O[C@@]5(C(F)(F)F)CCCOC5)C(=O)N4C3)nc(-c3ccc(OC(C)C)cc3)cc2c1 [Compound 1183] | – | – | – | – | EC50 ([1]; GETYPE1A, HCV genotype 1a replicon luciferase, read-out: LE_1a (EC50, range)): 1.01 to 5 nM; EC50 ([2]; GETYPE1B, HCV genotype 1b replicon luciferase, read-out: LE_1b (EC50, range)): 1.01 to 5 nM |
| COc1cnc(O[C@@H]2C[C@H]3C(=O)N[C@]4(C(=O)NS(=O)(=O)C5(CF)CC5)C[C@H]4/C=C\CC[C@@H](C)C[C@@H](C)[C@H](NC(=O)OC4(C)CCOCC4)C(=O)N3C2)c2ccccc12 [Compound 1052, 4-methyltetrahydro-2H-pyran-4-yl((2R,6S,7R,9R,13aS,14aR,16aS,Z)-14a-(((1-(fluoromethyl)cyclopropyl)sulfonyl)carbamoyl)-2-((4-methoxyisoquinolin-1-yl)oxy)-7,9-dimethyl-5,16-dioxo-1,2,3,5,6,7,8,9,10,11,13a,14,14a,15,16,16a-hexadecahydrocyclopropa[e]pyrrolo[1,2-a][1,4]diazacyclopentadecin-6-yl)carbamate] | 4.82 to 103 nM | < 5.46 nM | – | – | – |
| [2H]C([2H])([2H])C(OC(=O)N[C@@H]1C(=O)N2C[C@H](Oc3nccc4c5c(ccc34)N(C)CCO5)C[C@H]2C(=O)N[C@]2(C(=O)NS(=O)(=O)C3CC3)C[C@H]2/C=C\CC[C@H](C)C[C@H]1C)(C([2H])([2H])[2H])C(F)(F)F [Compound 5279, 1,1,1,3,3,3-hexadeutero-2-(trifluoromethyl)propan-2-yl((2R,6S,7R,9S,13aS,14aR,16aS,Z)-14a-((cyclopropylsulfonyl)carbamoyl)-7,9-dimethyl-2-((4-methyl-3,4-dihydro-2H-[1,4]oxazino[2,3-f]isoquinolin-7-yl)oxy)-5,16-dioxo-1,2,3,5,6,7,8,9,10,11,13a,14,14a,15,16,16a-hexadecahydrocyclopropa[e]pyrrolo[1,2-a][1,4]diazacyclopentadecin-6-yl)carbamate] | – | – | 4.82 to 103 nM | 4.82 to 103 nM | – |
| COc1cc2ccnc(O[C@@H]3C[C@H]4C(=O)N[C@]5(C(=O)NS(=O)(=O)C6(CF)CC6)C[C@H]5/C=C\CC[C@@H](C)C[C@@H](C)[C@H](NC(=O)c5ccccc5C(F)(F)F)C(=O)N4C3)c2cc1F [Compound 4096, (2R,6S,7R,9R,13aS,14aR,16aS,Z)-2-(7-fluoro-6-methoxyisoquinolin-1-yloxy)-N-(1-(fluoromethyl)cyclopropylsulfonyl)-7,9-dimethyl-5,16-dioxo-6-(2-(trifluoromethyl)benzamido)-1,2,3,5,6,7,8,9,10,11,13a,14,14a,15,16,16a-hexadecahydrocyclopropa[e]pyrrolo[1,2-a][1,4]diazacyclopentadecine-14a-carboxamide] | – | – | < 5.46 nM | < 5.46 nM | – |
| COc1cnc(O[C@@H]2C[C@H]3C(=O)N[C@]4(C(=O)NS(=O)(=O)C5(CF)CC5)C[C@H]4CCCC[C@H](C)C[C@@H](C)[C@H](NC(=O)OC(C)(C)C(C)(F)F)C(=O)N3C2)c2ccccc12 [Compound 5118, 3,3-difluoro-2-methylbutan-2-yl ((2R,6S,7R,9S,13 aR,14aR,16aS)-14a-(((1-(fluoromethyl)cyclopropyl)sulfonyl)carbamoyl)-2-((4-methoxyisoquinolin-1-yl)oxy)-7,9-dimethyl-5,16-dioxooctadecahydrocyclopropa[e]pyrrolo[1,2-a][1,4]diazacyclopentadecin-6-yl)carbamate] | – | – | 4.82 to 103 nM | 4.82 to 103 nM | – |
| CC[C@@H]1C[C@H](C)CC/C=C\[C@@H]2C[C@@]2(C(=O)NS(=O)(=O)C2(C)CC2)NC(=O)[C@@H]2C[C@@H](Oc3nccc4cc(OC)c(F)cc34)CN2C(=O)[C@H]1NC(=O)N1CC(C)OC(C)C1 (stereo partly drawn) [Compound 4334, N-((2R,6S,7R,9R,13aS,14aR,16aS,Z)-7-ethyl-2-((7-fluoro-6-methoxyisoquinolin-1-yl)oxy)-9-methyl-14a-(((1-methylcyclopropyl)sulfonyl)carbamoyl)-5,16-dioxo-1,2,3,5,6,7,8,9,10,11,13a,14,14a,15,16,16a-hexadecahydrocyclopropa[e]pyrrolo[1,2-a][1,4]diazacyclopentadecin-6-yl)-2,6-dimethylmorpholine-4-carboxamide] | – | – | 1.01 to 5 nM | 1.01 to 5 nM | – |
| CC[C@@H]1C[C@H](C)CC/C=C\[C@@H]2C[C@@]2(C(=O)NS(=O)(=O)C2(CF)CC2)NC(=O)[C@@H]2C[C@@H](Oc3nc4c(c5ccccc35)CCCO4)CN2C(=O)[C@H]1NC(=O)OC(C)(C)C(C)(F)F [Compound 6070, 3,3-difluoro-2-methylbutan-2-yl((2R,6S,7R,9R,13aS,14aR,16aS,Z)-2-((2,3-dihydro-1H-pyrano[2,3-c]isoquinolin-6-yl)oxy)-7-ethyl-14a-(((1-(fluoromethyl)cyclopropyl)sulfonyl)carbamoyl)-9-methyl-5,16-dioxo-1,2,3,5,6,7,8,9,10,11,13a,14,14a,15,16,16a-hexadecahydrocyclopropa[e]pyrrolo[1,2-a][1,4]diazacyclopentadecin-6-yl)carbamate] | – | – | 1.01 to 5 nM | 0.51 to 1 nM | – |
| COc1cnc(O[C@@H]2C[C@H]3C(=O)N[C@]4(C(=O)NS(=O)(=O)C5(CF)CC5)C[C@H]4/C=C\CC[C@@H](C)C[C@@H](C)[C@H](NC(=O)OC(C)(C)CC(F)(F)F)C(=O)N3C2)c2ccccc12 [Compound 1062, 4,4,4-trifluoro-2-methylbutan-2-yl((2R,6S,7R,9R,13aS,14aR,16aS,Z)-14a-(((1-(fluoromethyl)cyclopropyl)sulfonyl)carbamoyl)-2-((4-methoxyisoquinolin-1-yl)oxy)-7,9-dimethyl-5,16-dioxo-1,2,3,5,6,7,8,9,10,11,13a,14,14a,15,16,16a-hexadecahydrocyclopropa[e]pyrrolo[1,2-a][1,4]diazacyclopentadecin-6-yl)carbamate] | < 5.46 nM | < 5.46 nM | – | – | – |
| COc1ccc2c(O[C@@H]3C[C@H]4C(=O)N[C@]5(C(=O)NS(=O)(=O)C6CC6)C[C@H]5/C=C\CC[C@@H](C)C[C@@H](C)[C@H](NC(=O)OC(C)(C)C(F)(F)F)C(=O)N4C3)nc(-c3ccc(OC(C)C)nc3)cc2c1 [Compound 5215, 1,1,1-trifluoro-2-methylpropan-2-yl((2R,6S,7R,9R,13aS,14aR,16aS,Z)-14a-((cyclopropylsulfonyl)carbamoyl)-2-((3-(6-isopropoxypyridin-3-yl)-6-methoxyisoquinolin-1-yl)oxy)-7,9-dimethyl-5,16-dioxo-1,2,3,5,6,7,8,9,10,11,13a,14,14a,15,16,16a-hexadecahydrocyclopropa[e]pyrrolo[1,2-a][1,4]diazacyclopentadecin-6-yl)carbamate] | – | – | < 5.46 nM | < 5.46 nM | – |
